Results published in ChEMBL document CHEMBL5241100, “Sulfonamide derivatives as potential anti-cancer agents and their SARs elucidation” (Eur J Med Chem, 2021).

Experiments:
Carbonic anhydrase 9 [1] = target: T1, Carbonic anhydrase 9 (Homo sapiens, UniProt Q16790)
Carbonic anhydrase 9 [2] = target: T1, Carbonic anhydrase 9; experiment: Inhibition of human CA9
HSC-2 = experiment: Cytotoxicity against human HSC-2 cells assessed as reduction in cell viability by MTT assay; type: functional
Carbonic anhydrase 1 = Carbonic anhydrase 1 (Homo sapiens, UniProt P00915); experiment: Inhibition of human CA1
Ca9-22 = experiment: Cytotoxicity against human Ca9-22 cells assessed as reduction in cell viability by MTT assay; type: functional
Carbonic anhydrase 12 = Carbonic anhydrase 12 (Homo sapiens, UniProt O43570); experiment: Inhibition of human CA12
Carbonic anhydrase 2 = Carbonic anhydrase 2 (Homo sapiens, UniProt P00918); experiment: Inhibition of human CA2
HCT-116 = experiment: cells; settings: Homo sapiens, HCT-116, 48 h
[3] = Oral bioavailability in mouse; type: ADME, organism-based; settings: in vivo
[4] = target: T2, Induced myeloid leukemia cell differentiation protein Mcl-1 (Homo sapiens, UniProt Q07820); experiment: Inhibition of TAMRA-labeled BIM-BH3 peptide binding to 6His-tagged human recombinant Mcl-1 (171 to 327 residues) incubated for 120 mins by fluorescence polarization assay
Jurkat = type: functional, cell-based; settings: Homo sapiens, 72 h
MOLT-4 = type: functional, cell-based; settings: Homo sapiens, MOLT-4, 72 h
HL-60 = type: functional, cell-based; settings: Homo sapiens, HL-60, 72 h
[5] = target: T2, Induced myeloid leukemia cell differentiation protein Mcl-1; experiment: Inhibition of fluorescent-labeled BID-BH3 peptide binding to Mcl-1 (unknown origin) by fluorescence polarization assay
KG-1 = type: functional, cell-based; settings: Homo sapiens, KG-1, 72 h
RS4-11 = type: functional, cell-based; settings: Homo sapiens, RS4-11, 72 h
[6] = target: Apoptosis regulator Bcl-2 (Homo sapiens, UniProt P10415); experiment: Inhibition of fluorescent-labeled BID-BH3 peptide binding to Bcl-2 (unknown origin) by fluorescence polarization assay
[7] = target: T2, Induced myeloid leukemia cell differentiation protein Mcl-1; experiment: Inhibition of fluorescent-labeled BID-BH3 peptide binding to Mcl-1 (unknown origin) incubated for 20 mins by fluorescence polarization assay
Carbonic anhydrase 9 [8] = target: T1, Carbonic anhydrase 9; experiment: Inhibition of carbonic anhydrase 9 (unknown origin) using 4-nitrophenylacetate as substrate by UV/visible spectrophotometer analysis
[9] = Inhibition of topoisomerase 2 (unknown origin) assessed as relaxation of supercoiled kDNA incubated for 30 mins ethidium bromide staining based UV transilluminator analysis; design: species or system Homo sapiens
DNA topoisomerase 1 = DNA topoisomerase 1 (Homo sapiens, UniProt P11387); experiment: Inhibition of topoisomerase 1 (unknown origin) assessed as relaxation of supercoiled […] incubated for 30 mins ethidium bromide staining based UV transilluminator analysis
Aromatase = Aromatase (Homo sapiens, UniProt P11511); experiment: Inhibition of human aromatase preincubated with NADPH regenerating system for 10 mins followed by substrate addition by fluorescence based analysis
HepG2 = experiment: Antiproliferative activity against human HepG2 cells assessed as inhibition of cell growth by SRB assay; type: functional, cell-based
A-375 = experiment: Cytotoxicity against human A-375 cells assessed as inhibition of cell growth; type: functional
[10] = target: T2, Induced myeloid leukemia cell differentiation protein Mcl-1; experiment: Inhibition of FITC-labeled BID-BH3 peptide binding to Mcl-1 (unknown origin) by fluorescence polarization assay
[11] = Half life in iv dosed mouse; type: ADME, organism-based; settings: in vivo
MOLM-13 = experiment: Antitumor activity against human MOLM-13 cells xenografted in mouse assessed as tumor growth inhibition administered with carfilzomib; type: functional
OPM-2 = experiment: Antitumor activity against firefly luciferase-labeled human OPM-2 cells xenografted in mouse assessed as tumor growth inhibition at 20 mg/kg, po administered once daily with carfilzomib at 3 mg/kg, iv administered twice weekly and measured after 19 days; type: functional; settings: OPM-2, 456 h, time 19 day

T2 sequence (Q07820 whole entry, the tested form may be a part): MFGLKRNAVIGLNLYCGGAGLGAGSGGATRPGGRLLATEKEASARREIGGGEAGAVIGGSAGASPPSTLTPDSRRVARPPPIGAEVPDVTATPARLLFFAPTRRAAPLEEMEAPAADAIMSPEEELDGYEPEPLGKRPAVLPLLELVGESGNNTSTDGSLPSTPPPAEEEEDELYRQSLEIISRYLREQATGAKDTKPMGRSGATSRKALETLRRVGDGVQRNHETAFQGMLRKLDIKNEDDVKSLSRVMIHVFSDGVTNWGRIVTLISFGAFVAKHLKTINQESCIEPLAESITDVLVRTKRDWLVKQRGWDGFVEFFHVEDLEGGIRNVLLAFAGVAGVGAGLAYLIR
Chain of Carbonic anhydrase 12 (O43570 whole entry): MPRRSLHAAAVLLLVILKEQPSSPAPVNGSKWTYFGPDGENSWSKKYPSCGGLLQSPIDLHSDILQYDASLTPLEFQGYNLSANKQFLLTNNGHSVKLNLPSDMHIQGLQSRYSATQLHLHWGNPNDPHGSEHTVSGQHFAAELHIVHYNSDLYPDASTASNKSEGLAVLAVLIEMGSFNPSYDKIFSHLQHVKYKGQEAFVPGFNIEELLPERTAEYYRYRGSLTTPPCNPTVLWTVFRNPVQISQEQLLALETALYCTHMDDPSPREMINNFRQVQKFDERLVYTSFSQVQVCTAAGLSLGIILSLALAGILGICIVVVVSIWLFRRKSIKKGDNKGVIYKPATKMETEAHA
Chain of Carbonic anhydrase 1 (P00915 whole entry): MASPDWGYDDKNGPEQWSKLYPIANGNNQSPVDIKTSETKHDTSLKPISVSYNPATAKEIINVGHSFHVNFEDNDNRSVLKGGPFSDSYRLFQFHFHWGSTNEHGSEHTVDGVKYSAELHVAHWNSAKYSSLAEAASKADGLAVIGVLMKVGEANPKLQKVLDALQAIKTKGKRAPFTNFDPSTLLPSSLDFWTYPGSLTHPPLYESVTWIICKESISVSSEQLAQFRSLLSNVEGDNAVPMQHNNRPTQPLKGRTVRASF
Chain of Apoptosis regulator Bcl-2 (P10415 whole entry): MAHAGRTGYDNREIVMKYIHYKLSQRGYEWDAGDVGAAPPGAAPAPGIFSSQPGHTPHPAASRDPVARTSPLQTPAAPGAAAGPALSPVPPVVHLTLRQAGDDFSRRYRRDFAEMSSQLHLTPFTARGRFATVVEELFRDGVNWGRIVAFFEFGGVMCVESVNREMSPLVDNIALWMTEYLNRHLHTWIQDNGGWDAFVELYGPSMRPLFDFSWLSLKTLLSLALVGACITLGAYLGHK
Chain of DNA topoisomerase 1 (P11387 whole entry): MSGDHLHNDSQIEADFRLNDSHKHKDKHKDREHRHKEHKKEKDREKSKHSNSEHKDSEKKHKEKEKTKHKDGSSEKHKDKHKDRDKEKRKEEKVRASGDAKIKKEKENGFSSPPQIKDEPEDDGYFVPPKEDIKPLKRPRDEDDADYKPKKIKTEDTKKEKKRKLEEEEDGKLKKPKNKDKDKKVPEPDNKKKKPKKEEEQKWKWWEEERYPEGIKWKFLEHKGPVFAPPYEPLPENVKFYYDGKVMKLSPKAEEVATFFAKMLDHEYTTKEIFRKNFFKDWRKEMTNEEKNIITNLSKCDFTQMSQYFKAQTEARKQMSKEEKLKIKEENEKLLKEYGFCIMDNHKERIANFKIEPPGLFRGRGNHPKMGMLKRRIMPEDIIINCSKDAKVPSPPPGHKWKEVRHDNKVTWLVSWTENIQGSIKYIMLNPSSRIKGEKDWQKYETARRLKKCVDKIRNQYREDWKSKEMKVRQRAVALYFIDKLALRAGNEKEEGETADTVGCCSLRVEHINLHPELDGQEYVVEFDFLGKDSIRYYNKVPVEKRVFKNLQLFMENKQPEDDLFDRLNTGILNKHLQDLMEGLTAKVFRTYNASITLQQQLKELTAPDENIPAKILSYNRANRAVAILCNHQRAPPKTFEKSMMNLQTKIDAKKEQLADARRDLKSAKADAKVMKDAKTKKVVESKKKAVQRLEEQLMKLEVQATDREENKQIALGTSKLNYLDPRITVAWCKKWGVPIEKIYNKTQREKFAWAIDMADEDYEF
Chain of Aromatase (P11511 whole entry): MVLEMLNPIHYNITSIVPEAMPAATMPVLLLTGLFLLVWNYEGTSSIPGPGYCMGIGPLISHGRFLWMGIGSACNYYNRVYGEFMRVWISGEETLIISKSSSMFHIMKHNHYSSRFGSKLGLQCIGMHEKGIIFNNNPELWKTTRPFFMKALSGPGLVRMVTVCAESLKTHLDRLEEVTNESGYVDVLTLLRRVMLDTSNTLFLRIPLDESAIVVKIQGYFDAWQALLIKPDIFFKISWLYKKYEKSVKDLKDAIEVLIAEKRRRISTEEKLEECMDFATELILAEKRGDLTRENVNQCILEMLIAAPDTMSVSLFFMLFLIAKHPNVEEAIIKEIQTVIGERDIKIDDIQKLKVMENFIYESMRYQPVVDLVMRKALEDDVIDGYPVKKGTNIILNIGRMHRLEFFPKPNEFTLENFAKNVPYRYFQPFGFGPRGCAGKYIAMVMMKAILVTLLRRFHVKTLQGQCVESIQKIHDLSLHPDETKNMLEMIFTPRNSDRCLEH

For `NS(=O)(=O)c1ccc(O)cc1`, the IC50 (Carbonic anhydrase 9 [1]) was 32 µM.
In the case of `COc1cc(C2CC(c3cccs3)=NN2c2ccc(S(N)(=O)=O)cc2)cc(OC)c1OC` (stereo not given), the Ki (Carbonic anhydrase 9 [2]) is reported as ≥ 0.044 µM, the CC50 (HSC-2) is reported as 6.3 µM and the Ki (Carbonic anhydrase 1) is reported as ≥ 0.23 µM. For the same compound, the CC50 (Ca9-22) was 6.3 µM, the Ki (Carbonic anhydrase 12) was ≥ 0.009 µM and the Ki (Carbonic anhydrase 2) was 0.089 µM.
Compound `NS(=O)(=O)c1ccc(CC/N=C2\NC(=O)/C(=C3/C(=O)Nc4ccc(F)cc43)S2)cc1` has an IC50 (HCT-116) of 3.67 µM.
`CC[C@@H]1CC/C=C/[C@H](O)[C@@H]2CC[C@H]2CN2C[C@@]3(CCCc4cc(Cl)ccc43)COc3ccc(cc32)C(=O)NS1(=O)=O` gave a bioavailability [3] of 6%.
For `COc1cc(C2CC(c3ccc(F)cc3)=NN2c2ccc(S(N)(=O)=O)cc2)cc(OC)c1OC` (stereo not given), the Ki (Carbonic anhydrase 9 [2]) was ≥ 0.044 µM, the CC50 (HSC-2) was 6.3 µM and the Ki (Carbonic anhydrase 1) was ≥ 0.23 µM. For the same compound, the CC50 (Ca9-22) was 6.3 µM, the Ki (Carbonic anhydrase 12) was ≥ 0.009 µM and the Ki (Carbonic anhydrase 2) was 0.089 µM.
Compound `CO[C@@H]1O[C@H](Cn2cc(COc3ccc(S(N)(=O)=O)cc3)nn2)[C@@H](O)[C@H](O)[C@H]1O` has an IC50 (Carbonic anhydrase 9 [1]) of 0.007 µM.
With `O=C1NSCCOCCCCCCN2C[C@@]3(CCc4cc(Cl)ccc43)COc3ccc1cc32` the IC50 [4] was 0.01 µM.
With `O=C(NS(=O)(=O)c1ccc(Cl)c([N+](=O)[O-])c1)[C@@H]1Cc2cc(Br)c(OCc3ccc(-c4ccccc4)cc3)c(Br)c2CC1Cc1ccc([N+](=O)[O-])cc1` (stereo not given in full) the IC50 (Jurkat) was 12.8 µM, the IC50 (MOLT-4) was 12.8 µM and the IC50 (HL-60) was 12.8 µM. The Ki [5] was 0.26 µM, the IC50 (KG-1) was 12.8 µM and the IC50 (RS4-11) was 12.8 µM. For the same compound, the Ki [6] was 0.41 µM.
In the case of `O=C(NS(=O)(=O)c1ccc(Cl)c([N+](=O)[O-])c1)c1nn(Cc2ccc(Cl)c(Cl)c2)c2ccccc12`, the Ki [7] is reported as 0.43 µM.
`CC(C)CN1C[C@H](c2ccc(Cl)cc2Cl)Oc2ccc(C(=O)O)cc21` showed an IC50 [4] of 2.1 µM.
For `Nc1ccc(S(=O)(=O)Nc2ccsc2-c2nc(-c3ccccc3)no2)cc1`, the IC50 (Carbonic anhydrase 9 [8]) was 0.74 µM.
With `N#Cc1ccc(CC2Cc3c(cc(Br)c(OCc4ccc(-c5ccccc5)cc4)c3Br)C[C@H]2C(=O)NS(=O)(=O)c2ccc(Cl)c([N+](=O)[O-])c2)cc1` (stereo not given in full) the IC50 (Jurkat) was 12.8 µM, the IC50 (MOLT-4) was 12.8 µM and the IC50 (HL-60) was 12.8 µM. It also gave a Ki [5] of 0.35 µM, an IC50 (KG-1) of 12.8 µM and an IC50 (RS4-11) of 12.8 µM. The Ki [6] was 0.45 µM.
Compound `CC1CCN(S(=O)(=O)c2ccc(-c3ccno3)cc2)CC1` has an IC50 [9] of 33.6 µM and an IC50 (DNA topoisomerase 1) of 27.8 µM.
With `COc1cc2c(cc1OC)CN(S(=O)(=O)c1cccc(-n3cc(COc4ccc5ccccc5c4)nn3)c1)CC2` the IC50 (Aromatase) was 0.07 µM.
With `CC1CCN(S(=O)(=O)c2ccc(C(=O)c3coc4ccc(O)cc34)cc2)CC1` the IC50 (HepG2) was 6.2 µM.
`Cc1cc(S(=O)(=O)N2CC(C(=O)O)Cc3ccccc32)cc(C)c1Cl` (racemic) gave a GI50 (A-375) of 50 µM and a Ki [10] of 0.12 µM.
Work on `Cc1cc2c(C(C)C)c(O)c(O)c(C=O)c2c(O)c1-c1c(C)cc2c(C(C)C)c(O)c(O)c(C=O)c2c1O` [GOSSYPOL] yielded a Ki [7] of 0.45 µM.
For `CO[C@H]1/C=C/C[C@H](C)[C@@H](C)S(=O)(=O)NC(=O)c2ccc3c(c2)N(C[C@@H]2CC[C@H]21)C[C@@]1(CCCc2cc(Cl)ccc21)CO3` [TAPOTOCLAX], the half-life [11] was 14 h, the “inhibition (INH)” value (MOLM-13) was 99% and the bioavailability [3] was 32%. The inhibition in vivo at 20 mg/kg (OPM-2) was 99%.
